Usually AC50 stands for the midpoint of the concentration-response curve, whichever way the signal moves.

SMILES strings stand for the structures.

Assay [1] addresses Prostaglandin G/H synthase 1 (Homo sapiens, UniProt P23219). The class given is functional.
The target in assay [2] is Sodium-dependent dopamine transporter (Homo sapiens, UniProt Q01959).
The target in a further assay is T1, Thromboxane A2 receptor (Homo sapiens, UniProt P21731).
T1 sequence (P21731 whole entry): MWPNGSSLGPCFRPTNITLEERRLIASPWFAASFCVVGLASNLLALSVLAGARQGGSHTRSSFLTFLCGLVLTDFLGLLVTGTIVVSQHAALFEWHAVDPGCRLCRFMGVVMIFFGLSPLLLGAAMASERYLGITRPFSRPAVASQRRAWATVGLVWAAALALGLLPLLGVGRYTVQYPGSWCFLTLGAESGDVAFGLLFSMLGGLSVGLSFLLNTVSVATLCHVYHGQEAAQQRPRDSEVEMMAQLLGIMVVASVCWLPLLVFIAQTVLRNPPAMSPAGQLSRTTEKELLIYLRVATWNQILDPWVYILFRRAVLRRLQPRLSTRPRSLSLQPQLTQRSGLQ
The class given is functional, cell-based.

The target of assay [3] is T2, Amine oxidase [flavin-containing] A (Homo sapiens, UniProt P21397).
T2 sequence (P21397 whole entry): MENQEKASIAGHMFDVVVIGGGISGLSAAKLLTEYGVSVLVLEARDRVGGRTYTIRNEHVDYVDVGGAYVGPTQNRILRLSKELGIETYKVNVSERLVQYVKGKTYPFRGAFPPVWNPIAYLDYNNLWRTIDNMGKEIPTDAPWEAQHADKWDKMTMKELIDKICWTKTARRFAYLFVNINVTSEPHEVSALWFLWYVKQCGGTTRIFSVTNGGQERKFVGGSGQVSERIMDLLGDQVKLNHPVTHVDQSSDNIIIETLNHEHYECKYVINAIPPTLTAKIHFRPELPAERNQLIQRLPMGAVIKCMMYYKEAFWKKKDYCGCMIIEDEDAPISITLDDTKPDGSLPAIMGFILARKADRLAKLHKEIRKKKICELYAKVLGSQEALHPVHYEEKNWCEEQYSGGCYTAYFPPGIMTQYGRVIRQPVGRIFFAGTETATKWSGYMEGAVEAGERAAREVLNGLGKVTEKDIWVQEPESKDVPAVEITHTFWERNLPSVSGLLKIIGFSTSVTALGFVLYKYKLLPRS
The class given is functional.

A further assay has as its target Acetylcholinesterase (Homo sapiens, UniProt P22303). The class given is functional.
The target of assay [4] is T3, 5-hydroxytryptamine receptor 1A (Homo sapiens, UniProt P08908).
T3 sequence (P08908 whole entry): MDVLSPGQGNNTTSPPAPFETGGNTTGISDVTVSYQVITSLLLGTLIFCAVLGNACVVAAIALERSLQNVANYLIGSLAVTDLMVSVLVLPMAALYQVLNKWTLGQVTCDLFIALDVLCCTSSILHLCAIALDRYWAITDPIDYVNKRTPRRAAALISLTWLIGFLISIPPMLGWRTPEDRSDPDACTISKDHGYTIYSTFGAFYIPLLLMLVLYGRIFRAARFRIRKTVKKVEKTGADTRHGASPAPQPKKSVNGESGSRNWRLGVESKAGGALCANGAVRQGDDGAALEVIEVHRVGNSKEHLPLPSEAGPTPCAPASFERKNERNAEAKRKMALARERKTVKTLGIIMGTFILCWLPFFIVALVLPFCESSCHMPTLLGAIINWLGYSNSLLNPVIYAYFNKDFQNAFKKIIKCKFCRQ

A further assay addresses T4, Estrogen receptor (Homo sapiens, UniProt P03372).
T4 sequence (P03372 whole entry): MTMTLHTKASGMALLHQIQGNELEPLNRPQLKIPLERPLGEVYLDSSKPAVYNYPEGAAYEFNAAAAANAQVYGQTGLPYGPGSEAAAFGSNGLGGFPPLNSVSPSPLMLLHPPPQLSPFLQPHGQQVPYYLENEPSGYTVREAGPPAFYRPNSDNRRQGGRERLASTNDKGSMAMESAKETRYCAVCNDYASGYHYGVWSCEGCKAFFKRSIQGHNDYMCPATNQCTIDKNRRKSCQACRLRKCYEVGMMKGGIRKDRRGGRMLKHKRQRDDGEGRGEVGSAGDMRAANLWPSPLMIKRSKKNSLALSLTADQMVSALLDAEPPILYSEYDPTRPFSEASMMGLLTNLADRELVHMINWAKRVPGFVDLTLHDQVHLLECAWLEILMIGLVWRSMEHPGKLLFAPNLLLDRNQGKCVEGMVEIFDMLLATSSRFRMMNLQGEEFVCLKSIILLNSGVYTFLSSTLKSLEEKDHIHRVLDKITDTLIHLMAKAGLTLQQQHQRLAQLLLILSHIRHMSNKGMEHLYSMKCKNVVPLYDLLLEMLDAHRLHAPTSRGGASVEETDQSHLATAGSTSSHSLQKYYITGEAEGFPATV

Assay [5] addresses Sodium-dependent noradrenaline transporter (Homo sapiens, UniProt P23975).
In the next assay the target is D(3) dopamine receptor (Homo sapiens, UniProt P35462).
Chain of D(3) dopamine receptor (P35462 whole entry): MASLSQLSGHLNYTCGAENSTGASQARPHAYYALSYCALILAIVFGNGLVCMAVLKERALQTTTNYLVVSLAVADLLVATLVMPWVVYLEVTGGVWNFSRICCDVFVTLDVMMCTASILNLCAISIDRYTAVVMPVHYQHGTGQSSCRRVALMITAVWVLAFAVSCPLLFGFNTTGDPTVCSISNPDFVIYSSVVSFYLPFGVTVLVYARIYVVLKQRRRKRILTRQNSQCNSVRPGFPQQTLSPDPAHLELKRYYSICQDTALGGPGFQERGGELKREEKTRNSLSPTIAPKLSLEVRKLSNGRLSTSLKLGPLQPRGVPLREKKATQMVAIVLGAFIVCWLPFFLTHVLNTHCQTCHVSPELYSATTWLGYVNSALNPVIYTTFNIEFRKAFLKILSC
The target in assay [6] is 5-hydroxytryptamine receptor 2B (Homo sapiens, UniProt P41595). The class given is functional, cell-based.
Chain of 5-hydroxytryptamine receptor 2B (P41595 whole entry): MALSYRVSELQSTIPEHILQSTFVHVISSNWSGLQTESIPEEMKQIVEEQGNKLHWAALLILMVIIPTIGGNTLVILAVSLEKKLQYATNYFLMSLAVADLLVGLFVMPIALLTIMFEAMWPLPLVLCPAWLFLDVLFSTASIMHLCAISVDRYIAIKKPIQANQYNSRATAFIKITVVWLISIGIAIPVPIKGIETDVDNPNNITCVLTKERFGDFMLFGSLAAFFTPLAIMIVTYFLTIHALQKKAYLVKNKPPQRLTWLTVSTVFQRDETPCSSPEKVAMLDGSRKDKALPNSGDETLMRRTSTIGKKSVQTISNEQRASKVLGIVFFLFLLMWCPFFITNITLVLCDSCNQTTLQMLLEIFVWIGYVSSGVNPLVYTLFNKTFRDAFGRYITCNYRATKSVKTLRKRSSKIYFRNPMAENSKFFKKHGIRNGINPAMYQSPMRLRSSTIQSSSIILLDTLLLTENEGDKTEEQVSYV
For a further assay, the target named is Prothrombin (Homo sapiens, UniProt P00734). The class given is functional.
Assay [7] concerns the target cGMP-inhibited 3',5'-cyclic phosphodiesterase 3A (Homo sapiens, UniProt Q14432). The class given is functional.
Assay [8] deals with Sodium-dependent serotonin transporter (Homo sapiens, UniProt P31645).
Chain of Sodium-dependent serotonin transporter (P31645 whole entry): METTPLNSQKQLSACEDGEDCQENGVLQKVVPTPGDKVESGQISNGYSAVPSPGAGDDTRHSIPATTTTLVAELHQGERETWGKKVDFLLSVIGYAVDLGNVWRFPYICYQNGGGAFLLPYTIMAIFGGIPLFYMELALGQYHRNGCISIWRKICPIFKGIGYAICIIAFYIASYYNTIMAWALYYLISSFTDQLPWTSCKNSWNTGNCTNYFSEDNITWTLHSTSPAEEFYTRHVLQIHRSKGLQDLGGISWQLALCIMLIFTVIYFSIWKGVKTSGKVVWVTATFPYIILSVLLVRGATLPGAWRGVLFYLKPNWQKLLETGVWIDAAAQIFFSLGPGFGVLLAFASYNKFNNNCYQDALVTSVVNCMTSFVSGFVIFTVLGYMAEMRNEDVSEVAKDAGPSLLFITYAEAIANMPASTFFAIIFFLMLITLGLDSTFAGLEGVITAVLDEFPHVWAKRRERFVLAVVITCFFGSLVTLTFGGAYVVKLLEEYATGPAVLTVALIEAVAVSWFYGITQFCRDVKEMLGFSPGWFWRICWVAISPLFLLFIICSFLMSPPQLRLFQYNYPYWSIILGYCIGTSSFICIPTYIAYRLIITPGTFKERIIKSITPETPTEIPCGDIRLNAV
The target of assay [9] is Voltage-gated inwardly rectifying potassium channel KCNH2 (Homo sapiens, UniProt Q12809). The class given is functional. Particulars: read-out: AC50.
Chain of Voltage-gated inwardly rectifying potassium channel KCNH2 (Q12809 whole entry): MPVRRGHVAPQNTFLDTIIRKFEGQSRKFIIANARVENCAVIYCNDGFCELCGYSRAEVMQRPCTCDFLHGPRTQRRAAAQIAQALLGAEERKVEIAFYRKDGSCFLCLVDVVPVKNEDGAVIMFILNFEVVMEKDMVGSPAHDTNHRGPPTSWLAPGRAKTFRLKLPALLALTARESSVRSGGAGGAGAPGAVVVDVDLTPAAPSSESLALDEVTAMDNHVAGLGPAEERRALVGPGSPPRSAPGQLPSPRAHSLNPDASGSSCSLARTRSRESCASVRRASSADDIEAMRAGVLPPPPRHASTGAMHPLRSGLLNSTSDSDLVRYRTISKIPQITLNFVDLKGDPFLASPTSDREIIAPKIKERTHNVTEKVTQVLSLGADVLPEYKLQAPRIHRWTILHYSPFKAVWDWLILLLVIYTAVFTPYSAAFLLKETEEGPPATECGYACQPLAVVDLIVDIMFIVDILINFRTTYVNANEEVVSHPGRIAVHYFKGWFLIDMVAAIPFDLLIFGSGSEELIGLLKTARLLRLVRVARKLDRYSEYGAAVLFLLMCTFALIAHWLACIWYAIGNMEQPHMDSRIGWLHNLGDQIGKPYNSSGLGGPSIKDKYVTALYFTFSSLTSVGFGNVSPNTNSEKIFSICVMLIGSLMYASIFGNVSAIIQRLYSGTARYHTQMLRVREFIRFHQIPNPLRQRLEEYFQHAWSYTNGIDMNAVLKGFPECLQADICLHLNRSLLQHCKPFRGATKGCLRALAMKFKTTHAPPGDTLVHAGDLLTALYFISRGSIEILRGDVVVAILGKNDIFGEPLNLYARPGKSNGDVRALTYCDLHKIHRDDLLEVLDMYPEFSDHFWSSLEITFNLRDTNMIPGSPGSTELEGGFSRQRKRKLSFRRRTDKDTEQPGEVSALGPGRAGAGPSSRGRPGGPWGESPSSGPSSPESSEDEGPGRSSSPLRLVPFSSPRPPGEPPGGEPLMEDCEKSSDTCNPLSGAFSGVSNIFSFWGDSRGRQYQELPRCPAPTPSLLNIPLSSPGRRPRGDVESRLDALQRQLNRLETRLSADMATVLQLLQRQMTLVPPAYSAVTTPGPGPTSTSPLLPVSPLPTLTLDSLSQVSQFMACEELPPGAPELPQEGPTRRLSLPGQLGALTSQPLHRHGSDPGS
Note: assay procedure not described here.

Chain of Prostaglandin G/H synthase 1 (P23219 whole entry): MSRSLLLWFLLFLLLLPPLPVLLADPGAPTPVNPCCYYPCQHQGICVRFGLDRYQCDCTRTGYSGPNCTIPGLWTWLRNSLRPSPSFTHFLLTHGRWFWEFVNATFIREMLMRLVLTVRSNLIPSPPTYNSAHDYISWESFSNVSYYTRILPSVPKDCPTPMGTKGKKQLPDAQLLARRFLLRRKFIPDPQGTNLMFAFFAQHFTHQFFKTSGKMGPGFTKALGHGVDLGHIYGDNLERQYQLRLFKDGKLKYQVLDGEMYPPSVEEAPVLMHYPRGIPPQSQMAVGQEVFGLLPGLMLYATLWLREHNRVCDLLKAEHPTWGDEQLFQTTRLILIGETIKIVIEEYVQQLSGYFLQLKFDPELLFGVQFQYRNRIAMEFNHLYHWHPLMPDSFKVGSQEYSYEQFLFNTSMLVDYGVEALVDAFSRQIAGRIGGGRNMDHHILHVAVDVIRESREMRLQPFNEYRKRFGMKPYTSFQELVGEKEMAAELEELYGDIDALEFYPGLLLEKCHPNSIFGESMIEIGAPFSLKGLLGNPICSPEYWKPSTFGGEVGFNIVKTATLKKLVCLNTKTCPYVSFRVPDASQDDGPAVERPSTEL
Chain of cGMP-inhibited 3',5'-cyclic phosphodiesterase 3A (Q14432 whole entry): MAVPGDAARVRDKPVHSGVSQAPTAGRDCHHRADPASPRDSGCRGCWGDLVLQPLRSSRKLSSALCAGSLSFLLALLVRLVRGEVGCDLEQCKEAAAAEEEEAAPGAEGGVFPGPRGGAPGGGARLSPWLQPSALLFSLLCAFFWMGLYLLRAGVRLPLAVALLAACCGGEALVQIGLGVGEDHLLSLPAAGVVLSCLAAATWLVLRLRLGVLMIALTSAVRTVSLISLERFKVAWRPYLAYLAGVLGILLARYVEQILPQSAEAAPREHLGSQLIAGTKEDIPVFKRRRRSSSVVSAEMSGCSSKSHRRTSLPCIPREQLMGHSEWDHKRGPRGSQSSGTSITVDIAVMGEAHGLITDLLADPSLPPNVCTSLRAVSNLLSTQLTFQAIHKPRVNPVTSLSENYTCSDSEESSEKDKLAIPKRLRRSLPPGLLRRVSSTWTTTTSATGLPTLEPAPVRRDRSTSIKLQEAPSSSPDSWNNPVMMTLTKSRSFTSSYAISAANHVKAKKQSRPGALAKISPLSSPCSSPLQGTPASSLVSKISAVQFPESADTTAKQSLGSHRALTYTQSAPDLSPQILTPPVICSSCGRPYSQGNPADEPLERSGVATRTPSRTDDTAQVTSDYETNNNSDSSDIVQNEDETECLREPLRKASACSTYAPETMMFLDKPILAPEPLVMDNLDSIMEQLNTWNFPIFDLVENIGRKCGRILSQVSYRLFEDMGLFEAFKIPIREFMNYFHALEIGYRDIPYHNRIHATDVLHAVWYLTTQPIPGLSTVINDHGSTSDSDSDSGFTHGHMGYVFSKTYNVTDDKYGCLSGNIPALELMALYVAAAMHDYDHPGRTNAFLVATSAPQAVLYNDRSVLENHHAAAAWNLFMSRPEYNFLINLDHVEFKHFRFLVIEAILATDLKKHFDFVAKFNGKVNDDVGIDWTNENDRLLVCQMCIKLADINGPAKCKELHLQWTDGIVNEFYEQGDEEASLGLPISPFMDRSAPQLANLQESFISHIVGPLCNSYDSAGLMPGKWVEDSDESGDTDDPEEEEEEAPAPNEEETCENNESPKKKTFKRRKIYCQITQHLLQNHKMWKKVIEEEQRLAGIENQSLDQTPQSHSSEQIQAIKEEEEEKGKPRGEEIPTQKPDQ
Chain of Sodium-dependent dopamine transporter (Q01959 whole entry): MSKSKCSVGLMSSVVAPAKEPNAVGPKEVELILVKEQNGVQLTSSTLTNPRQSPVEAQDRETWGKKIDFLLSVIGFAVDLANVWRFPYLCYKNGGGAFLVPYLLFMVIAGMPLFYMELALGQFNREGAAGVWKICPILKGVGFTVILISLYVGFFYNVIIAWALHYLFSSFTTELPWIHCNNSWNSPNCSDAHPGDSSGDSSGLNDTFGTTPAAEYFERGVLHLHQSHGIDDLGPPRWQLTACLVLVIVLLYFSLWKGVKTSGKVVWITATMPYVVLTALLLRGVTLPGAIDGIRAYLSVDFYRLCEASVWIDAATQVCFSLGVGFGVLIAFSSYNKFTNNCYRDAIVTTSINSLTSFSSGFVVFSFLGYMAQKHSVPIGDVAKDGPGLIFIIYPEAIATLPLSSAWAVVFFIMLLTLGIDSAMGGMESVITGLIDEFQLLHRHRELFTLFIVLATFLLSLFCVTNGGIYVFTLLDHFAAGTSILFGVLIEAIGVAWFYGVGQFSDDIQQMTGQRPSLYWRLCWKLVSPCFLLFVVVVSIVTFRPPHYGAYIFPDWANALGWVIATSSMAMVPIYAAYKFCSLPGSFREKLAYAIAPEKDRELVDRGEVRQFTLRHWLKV

In the case of `C[C@@H](O)[C@H]1C(=O)N2C(C(=O)O)=C(S[C@@H]3CN[C@H](C(=O)Nc4cccc(C(=O)O)c4)C3)[C@H](C)[C@H]12`, the AC50 in [1] was 10.2 µM; in assay [2], over 30 µM; on Thromboxane A2 receptor it was over 30 µM; in assay [3], over 30 µM; on Acetylcholinesterase, over 30 µM; in assay [4], over 30 µM. The AC50 at Estrogen receptor was 15.9 µM; in assay [5], over 30 µM; at D(3) dopamine receptor, over 30 µM; in assay [6], over 30 µM; on Prothrombin, over 30 µM; in [7] it was over 30 µM. The molecule further had an AC50 in assay [8] of over 30 µM.
Turning to `CC(=O)OC1CN2CCC1CC2` (stereo not given) [ACECLIDINE], the AC50 (in assay [1]; in assay [2]; at Thromboxane A2 receptor; in assay [3]; on Acetylcholinesterase; in assay [4]) was over 30 µM each time. For the same molecule, the AC50 (on Estrogen receptor; in [5]; on D(3) dopamine receptor; in assay [6]; at Prothrombin; in assay [7]) was over 30 µM each time. Further, the AC50 in assay [8] is over 30 µM.
On to `O=C(OOC(=O)c1ccccc1)c1ccccc1` [BENZOYL PEROXIDE], for which the AC50 (in [1]; in [9]; in assay [2]; on Thromboxane A2 receptor; in assay [3]; at Acetylcholinesterase) was over 30 µM throughout. For the same molecule, the AC50 in assay [4] is over 30 µM; on Estrogen receptor it was over 30 µM; in [5], over 30 µM; at D(3) dopamine receptor, over 30 µM; in assay [6], over 30 µM; on Prothrombin it was 9.02 µM. Moreover, the AC50 in [7] and in [8] was over 30 µM each time.
On to `CC(C)(C)NCC(O)COc1ccccc1C#N` (stereo not given) [BUNITROLOL], for which the AC50 in assay [1] is over 30 µM; in assay [9], over 30 µM; in assay [2], over 30 µM; on Thromboxane A2 receptor, over 30 µM; in [3], 10.4 µM; at Acetylcholinesterase, over 30 µM. For the same molecule, the AC50 in assay [4] was 0.0086 µM; on Estrogen receptor, over 30 µM; in assay [5], over 30 µM; on D(3) dopamine receptor, over 30 µM; in assay [6] it was over 30 µM; at Prothrombin, over 30 µM. In addition, the AC50 in assay [7] and in assay [8] was over 30 µM in each case.
For the molecule `COc1c(OCCCN2CCOCC2)ccc2c1N=C(NC(=O)c1cnc(N)nc1)N1CCN=C21` [COPANLISIB], the AC50 (in [1]; in [2]; at Thromboxane A2 receptor; in assay [3]; at Acetylcholinesterase; in assay [4]) was over 30 µM throughout. Besides, the AC50 (at Estrogen receptor; in assay [5]; at D(3) dopamine receptor; in assay [6]; at Prothrombin; in assay [7]) was over 30 µM each time. This molecule gave an AC50 in assay [8] of over 30 µM.
Consider `CSCC[C@H](N)C(=O)O` [METHIONINE], for which the AC50 (in [1]; in [2]; on Thromboxane A2 receptor; in assay [3]; on Acetylcholinesterase; in [4]) was over 30 µM throughout. For the same molecule, the AC50 (on Estrogen receptor; in assay [5]; at D(3) dopamine receptor; in [6]; on Prothrombin; in [7]) was over 30 µM throughout. The molecule also came in with an AC50 in assay [8] of over 30 µM.
With `COc1ccc(C(=O)c2ccccc2)c(O)c1` [OXYBENZONE], the AC50 in [1] was over 30 µM; in assay [9], over 30 µM; in [2], 16.5 µM; on Thromboxane A2 receptor it was over 10 µM; in assay [3], over 30 µM; at Acetylcholinesterase it was over 30 µM. The AC50 in assay [4] is over 30 µM; at Estrogen receptor it was over 30 µM; in assay [5] it was 11.6 µM; at D(3) dopamine receptor, over 30 µM; in assay [6], over 30 µM; on Prothrombin it was over 30 µM. For the same molecule, the AC50 in assay [7] and in assay [8] was over 30 µM throughout.
Consider `OC(CN1CCCCC1)c1cc(-c2ccccc2)on1` (stereo not given) [PERISOXAL], for which the AC50 (in assay [1]; in assay [2]; at Thromboxane A2 receptor; in [3]; at Acetylcholinesterase; in assay [4]) was over 30 µM throughout. Moreover, the AC50 was over 30 µM on Estrogen receptor; 21.9 µM in [5]; 15.2 µM at D(3) dopamine receptor; over 30 µM in assay [6]; over 30 µM at Prothrombin; over 30 µM in assay [7]. The molecule further displayed an AC50 in assay [8] of over 30 µM.
Regarding `CC(=O)O[C@]1(C(C)=O)CC[C@H]2[C@@H]3CCC4=CC(=O)CCC4=C3[C@@H](c3ccc(N(C)C)cc3)C[C@@]21C` [ULIPRISTAL ACETATE], the AC50 (in assay [1]; in assay [2]; on Thromboxane A2 receptor; in assay [3]; at Acetylcholinesterase; in assay [4]) was over 30 µM throughout. For the same molecule, the AC50 on Estrogen receptor is 9.29 µM; in [5] it was over 30 µM; at D(3) dopamine receptor it was over 30 µM; in assay [6], over 30 µM; on Prothrombin, over 30 µM; in [7] it was over 30 µM. Besides, the AC50 in [8] is over 30 µM.
